Measurements: patent US10993437B2, “Anti-microbial polymer incorporating a quaternary ammonium group” (priority 2013, dated 2021)

Key:
Format in all cases: cell-based
Bacillus cereus = assay: Antibiotic disk susceptibility test, rings of inhibition; settings: for B. cereus, diameter of ring of inhibition: Mueller-Hinton plate, 18-24 hrs at 37° C., 100 μg of compound per disc, control discs 10 or 30 μg; for B. cereus, diameter of ring of inhibition, antimicrobial paper towels: 6 mm paper discs punched from paper towels, antibiotic control discs 10 or 30 ug
Description: (§1) Compounds were tested for antibacterial activity, as described in Ma et al. (2011), against pure cultures of Escherichia coli, Pseudomonas aeruginosa, Bacillus cereus, Proteus mirabilis/hauseri, and Staphylococcus aureus, supplied by Ward's Natural Science Ltd. (St. Catherines, Ontario, Canada). All cultures were maintained on Tryptic Soy agar. These cultures were then transferred using an inoculation loop to 10 mL of Tryptic soy broth, and grown at 37° C. for 24 hours. Triplicates of plate and broth cultures were made in case of error or contamination. Using a sterile swab, and aseptic techniques, the bacterial broth inocula were transferred to Mueller-Hinton plates and spread evenly, ensuring that the entire surface was inoculated. They were then left to dry for 3-5 minutes. The following control discs were used: Penicillin (10 μg), Tetracycline (30 μg), Chloramphenicol (30 μg), and Ampicillin (10 μg). Four antibiotic discs containing different compounds were placed equidistant from each other on a Mueller-Hinton plate. […] If clear rings of inhibition were present, the diameter was measured twice using a caliper. […] The paper towels were then allowed to dry. After, 5 cm from each edge of the paper towels was cut out (to prevent edge areas where spraying might have been irregular being tested), and from the remaining paper towels, a single hole punch machine was used to punch 6 mm paper discs from each of the paper towels.

Escherichia coli = assay: as above; settings: for E. coli, diameter of ring of inhibition: Mueller-Hinton plate, 18-24 hrs at 37° C., 100 μg of compound per disc, control discs 10 or 30 μg; for E. coli, diameter of ring of inhibition, antimicrobial paper towels: 6 mm paper discs punched from paper towels, antibiotic control discs 10 or 30 ug
Description: as §1

Staphylococcus aureus = assay: as above; settings: for S. aureus, diameter of ring of inhibition: Mueller-Hinton plate, 18-24 hrs at 37° C., 100 μg of compound per disc, control discs 10 or 30 μg; for S. aureus, diameter of ring of inhibition, antimicrobial paper towels: 6 mm paper discs punched from paper towels, antibiotic control discs 10 or 30 ug
Description: as §1

Pseudomonas aeruginosa = assay: as above; settings: for P. aeruginosa, diameter of ring of inhibition: Mueller-Hinton plate, 18-24 hrs at 37° C., 100 μg of compound per disc, control discs 10 or 30 μg
Description: as §1

[1] = test system: Proteus mirabilis/hauseri; assay: as above; settings: for P. hauseri, diameter of ring of inhibition: Mueller-Hinton plate, 18-24 hrs at 37° C., 100 μg of compound per disc, control discs 10 or 30 μg; for P. hauseri, diameter of ring of inhibition, antimicrobial paper towels: 6 mm paper discs punched from paper towels, antibiotic control discs 10 or 30 ug
Description: as §1

Aspergillus niger = assay: Antifungal disk susceptibility test, rings of inhibition; settings: for A. niger, diameter of ring of inhibition: Sabouraud plate, 48 hrs at room temperature, 100 μg of compound per disc, Amphotericin B 100 ug or 20 μg
Description: (§2) Adapted from Messer et al., (2007), this protocol was used to test novel compounds for antifungal properties against yeasts and fungi. Compounds were tested for antifungal activity against pure cultures of Saccharomyces cerevisiae, Candida albicans supplied by Ward's Natural Science Ltd. and Aspergillus niger and Aspergillus fumigatus supplied by […]. (Inverness Medical, Ottawa, Ontario, Canada). All cultures were maintained on Sabouraud agar. […] The cultures of A. niger and A. fumigatus were transferred, using an inoculation loop, to new Sabouraud agar and grown for 48 hrs. at 27° C., and 35° C. respectively, to cause sporulation. Triplicates of all the plates and broth cultures were made in case of error or contamination. Using a sterile swab, and aseptic techniques, the cell suspension of S. cerevisiae, and C. albicans were transferred to Sabouraud agar plates and spread evenly, ensuring that the entire surface was inoculated. They were then left to dry for 10 minutes. […] The 0.2% Tween 80 reduces the hydrophobicity of the conidia, allowing the spores to be readily suspended (Messer et al., 2007). Alternatively two small circles containing fungal growth of the A Niger or A Fumigatus fungi were cut from the agar plates, and using a glass/PTFE tissue homoginzer, were mixed and homogenized with 5 ml of sterile MilliQ water to create a suspension of fungal spores. Using a sterile swab, and aseptic techniques, the spore inocula of A. niger and A. fumigatus were transferred to Sabouraud agar plates and spread evenly, ensuring that the entire surface was inoculated. They were then left to dry for 10 minutes. Amphotericin B (100 μg) in acetone was used as a control. Four antibiotic discs containing different compounds were place equidistant apart on each Sabouraud plate. […] If clear rings of inhibition were present, the diameter was measured twice using a caliper. Halos indicated partial inhibition of growth (Hicks et al., 2008). […] The paper towels were then allowed to dry. After, 5 cm from each edge of the paper towels was cut out (to prevent edge areas where spraying might have been irregular being tested), and from the remaining paper towels, a single hole punch machine was used to punch 6 mm paper discs from each of the paper towels.

Aspergillus fumigatus = assay: as above; settings: for A. fumigatus, diameter of ring of inhibition: Sabouraud plate, 18-24 hrs at 35° C., 100 μg of compound per disc, Amphotericin B 100 ug or 20 μg
Description: as §2

Saccharomyces cerevisiae = assay: as above; settings: for S. cerevisiae, diameter of ring of inhibition: Sabouraud plate, 18-24 hrs at 37° C., 100 μg of compound per disc, Amphotericin B 50 ug or 20 μg
Description: as §2, with “Amphotericin B (100 μg) in acetone was used as a control.” left out

Candida albicans = assay: as above; settings: for C. albicans, diameter of ring of inhibition: Sabouraud plate, 18-24 hrs at 37° C., 100 μg of compound per disc, Amphotericin B 50 ug or 20 μg
Description: as §2, with “Amphotericin B (100 μg) in acetone was used as a control.” left out

[2] = 6 mm paper discs punched from paper towels, PAA-BZ-H 100 μg of solution onto paper discs, Amphotericin B 20 ug

Row | Compound | B. cereus, diameter of ring of inhibition (Bacillus cereus) | E. coli, diameter of ring of inhibition (Escherichia coli) | S. aureus, diameter of ring of inhibition (Staphylococcus aureus) | P. aeruginosa, diameter of ring of inhibition (Pseudomonas aeruginosa) | P. hauseri, diameter of ring of inhibition [1] | A. niger, diameter of ring of inhibition (Aspergillus niger) | A. fumigatus, diameter of ring of inhibition (Aspergillus fumigatus) | S. cerevisiae, diameter of ring of inhibition (Saccharomyces cerevisiae) | C. albicans, diameter of ring of inhibition (Candida albicans) | A. niger, diameter of ring of inhibition, antimicrobial paper towels (Aspergillus niger; [2]) | A. fumigatus, diameter of ring of inhibition, antimicrobial paper towels (Aspergillus fumigatus; [2]) | S. cerevisiae, diameter of ring of inhibition, antimicrobial paper towels (Saccharomyces cerevisiae; [2]) | C. albicans, diameter of ring of inhibition, antimicrobial paper towels (Candida albicans; [2]) | B. cereus, diameter of ring of inhibition, antimicrobial paper towels (Bacillus cereus) | E. coli, diameter of ring of inhibition, antimicrobial paper towels (Escherichia coli) | S. aureus, diameter of ring of inhibition, antimicrobial paper towels (Staphylococcus aureus) | P. aeruginosa, diameter of ring of inhibition, antimicrobial paper towels (Pseudomonas aeruginosa; 6 mm paper discs punched from paper towels, antibiotic control discs 10 or 30 ug) | P. hauseri, diameter of ring of inhibition, antimicrobial paper towels [1]
1 | CCCCCCCCCCCCCC[N+](C)(C)Cc1ccccc1.[Cl-] [Compound 15, Benzyldimethyltetradecylammonium chloride] | 14.30 | 12.70 | 13.43 | 8.13 | 12.63 | 10.97 | 8.13 | 11.33 | 7.48 | – | – | – | – | – | – | – | – | –
2 | C[C@@H]1[C@H](O)[C@@H](C)/C=C/C=C/C=C/C=C/C=C/C=C/C=C/[C@H](O[C@@H]2O[C@H](C)[C@@H](O)[C@H](N)[C@@H]2O)C[C@@H]2O[C@](O)(C[C@@H](O)C[C@@H](O)[C@H](O)CC[C@@H](O)C[C@@H](O)CC(=O)O[C@H]1C)C[C@H](O)[C@H]2C(=O)O [Compound 14, Amphotericin B] | – | – | – | – | – | 8.80 | 7.80 | 10.80 | 11.00 | 8.7 | 9.4 | 13.4 | 9.7 | – | – | – | – | –
3 | CN(C)[C@@H]1C(O)=C(C(N)=O)C(=O)[C@@]2(O)C(O)=C3C(=O)c4c(O)cccc4[C@@](C)(O)[C@H]3C[C@@H]12 [Compound 10, Tetracycline] | 20.30 | 20.45 | 23.30 | 10.75 | 29.50 | – | – | – | – | – | – | – | – | 20.3 | 20.45 | 23.3 | 10.75 | 29.5
4 | Penicillin [Compound 9] | – | 15.91 | 31.50 | – | 11.00 | – | – | – | – | – | – | – | – | – | 15.91 | 31.5 | – | 11
5 | CC1(C)S[C@@H]2[C@H](NC(=O)[C@H](N)c3ccccc3)C(=O)N2[C@H]1C(=O)O [Compound 12, Ampicillin] | 13.50 | 17.13 | 28.80 | – | 19.00 | – | – | – | – | – | – | – | – | 13.5 | 17.13 | 28.8 | – | 19
6 | C[C@@H]1[C@H](O)[C@@H](C)/C=C/C=C/C=C/C=C/C=C/C=C/C=C/[C@H](O[C@@H]2O[C@H](C)[C@@H](O)[C@H](N)[C@@H]2O)C[C@@H]2O[C@](O)(C[C@@H](O)C[C@@H](O)[C@H](O)CC[C@@H](O)C[C@@H](O)CC(=O)O[C@H]1C)C[C@H](O)[C@H]2C(=O)O [Compound 13, Amphotericin B] | – | – | – | – | – | 17.86 | 11.19 | 8.39 | 9.35 | – | – | – | – | – | – | – | – | –
7 | O=C(N[C@H](CO)[C@H](O)c1ccc([N+](=O)[O-])cc1)C(Cl)Cl [Compound 11, Chloramphenicol] | 26.30 | 32.25 | 17.70 | – | 16.50 | – | – | – | – | – | – | – | – | 26.3 | 32.25 | 17.7 | – | 16.5
